Read-outs that look alike come from different tables or passages of the source. Marks after values point to notes of the source that are not given here.
Assays:
HL-60 cells = test: Apoptosis (caspase 3/7 activation), HL-60; format: cell-based, human; conditions: for EC50: Homo sapiens, read-out: Compound D-induced Apoptosis EC50
ATF3 = ATF3 mRNA, quantitative PCR, KG-1; format: cell-based, human; conditions: KG-1, 100 nM Compound D or greater
Method: Compound D regulates UPR stress RNAs, ATF3 and CHOP, and nonsense-mediated decay (NMD) RNAs, SRSF3 and SRSF6, in KG-1 cells in both dose- and time-dependent manners. KG-1 cells were plated in 10 cm^2 dishes and incubated overnight. The following day, KG-1 cells were treated with a 6-point dose response (0, 3, 10, 30, 100, 300 nM) of Compound D and incubated for 2, 4, 8, and 20 hours. Cells were removed from dishes and cell pellets were prepared for RNA isolation (Qiagen RNA isolation kit). Total RNA was quantitated using NanoDrop spectrophotometer and cDNA was reversely transcribed using 1 μg total RNA. Quantitative PCR was performed in replicates for each sample using primer sets for ATF3, CHOP, and both NMD and normal transcripts of SRSF3 and SRSF6. Data was doubly normalized to the 18S housekeeping gene and 2 hour DMSO control. Normalized RNA expression (y-axis) versus drug concentration in nM (x-axis) for each time point was plotted. SRSF3-1 NMD and SRSF6-1 NMD depict amplification of NMD transcript for SRSF3 and SRSF6, respectively. SRSF3-3 Normal and SRSF6-3 Normal depict amplification of normal transcript for SRSF3 and SRSF6 genes, respectively. […] FIGS. 29A-29F show effects of Compound D treatment on UPR and NMD pathways in KG-1 cells. […] Additionally, 100 nM Compound D or greater induced the mRNA levels of ATF3 and DDIT3 (CHOP) approximately 100-fold and 10-fold, respectively. […]

[1] = system: proteins in the UPR pathway, PARP; test: UPR pathway proteins and PARP cleavage, western blot, healthy PBMCs; format: cell-based, human; conditions: 10 nM Compound D
GSPT1 [2] = target: T1, GSPT1 (Homo sapiens, UniProt P15170+Q96SW2); test: GSPT1 protein reduction, western analysis, normal PBMCs
T1 sequence (P15170 1-637 isoform P15170-3): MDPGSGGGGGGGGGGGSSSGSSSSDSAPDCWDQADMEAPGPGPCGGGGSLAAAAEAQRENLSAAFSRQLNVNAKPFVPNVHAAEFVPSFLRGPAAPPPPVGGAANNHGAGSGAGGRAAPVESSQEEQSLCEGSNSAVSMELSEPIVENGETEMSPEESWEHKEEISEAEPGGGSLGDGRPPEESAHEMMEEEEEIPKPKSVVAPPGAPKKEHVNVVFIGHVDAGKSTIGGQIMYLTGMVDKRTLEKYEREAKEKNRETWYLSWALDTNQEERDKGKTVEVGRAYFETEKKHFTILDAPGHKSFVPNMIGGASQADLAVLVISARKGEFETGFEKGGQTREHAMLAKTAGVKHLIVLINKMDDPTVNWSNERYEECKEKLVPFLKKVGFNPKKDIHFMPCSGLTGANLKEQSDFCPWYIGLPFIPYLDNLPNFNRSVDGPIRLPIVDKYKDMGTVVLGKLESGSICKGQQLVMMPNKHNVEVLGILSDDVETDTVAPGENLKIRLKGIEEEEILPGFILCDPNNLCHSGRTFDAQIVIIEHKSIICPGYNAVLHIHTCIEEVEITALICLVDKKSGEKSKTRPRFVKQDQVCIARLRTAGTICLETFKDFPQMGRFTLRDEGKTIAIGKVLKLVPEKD
T1 sequence (Q96SW2 whole entry): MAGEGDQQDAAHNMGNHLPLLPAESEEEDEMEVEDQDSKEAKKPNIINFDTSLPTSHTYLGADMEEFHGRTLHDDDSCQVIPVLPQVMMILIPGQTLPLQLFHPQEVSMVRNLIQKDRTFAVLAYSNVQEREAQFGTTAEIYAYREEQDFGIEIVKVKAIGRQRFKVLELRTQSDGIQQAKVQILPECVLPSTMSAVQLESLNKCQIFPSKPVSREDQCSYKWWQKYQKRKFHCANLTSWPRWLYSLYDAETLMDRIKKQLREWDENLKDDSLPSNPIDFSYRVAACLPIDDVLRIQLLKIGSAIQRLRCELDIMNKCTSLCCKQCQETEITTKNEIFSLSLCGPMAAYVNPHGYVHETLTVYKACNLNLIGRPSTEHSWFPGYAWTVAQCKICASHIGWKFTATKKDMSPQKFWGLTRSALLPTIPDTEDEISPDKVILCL
T1 sequence (Q16531 whole entry partner): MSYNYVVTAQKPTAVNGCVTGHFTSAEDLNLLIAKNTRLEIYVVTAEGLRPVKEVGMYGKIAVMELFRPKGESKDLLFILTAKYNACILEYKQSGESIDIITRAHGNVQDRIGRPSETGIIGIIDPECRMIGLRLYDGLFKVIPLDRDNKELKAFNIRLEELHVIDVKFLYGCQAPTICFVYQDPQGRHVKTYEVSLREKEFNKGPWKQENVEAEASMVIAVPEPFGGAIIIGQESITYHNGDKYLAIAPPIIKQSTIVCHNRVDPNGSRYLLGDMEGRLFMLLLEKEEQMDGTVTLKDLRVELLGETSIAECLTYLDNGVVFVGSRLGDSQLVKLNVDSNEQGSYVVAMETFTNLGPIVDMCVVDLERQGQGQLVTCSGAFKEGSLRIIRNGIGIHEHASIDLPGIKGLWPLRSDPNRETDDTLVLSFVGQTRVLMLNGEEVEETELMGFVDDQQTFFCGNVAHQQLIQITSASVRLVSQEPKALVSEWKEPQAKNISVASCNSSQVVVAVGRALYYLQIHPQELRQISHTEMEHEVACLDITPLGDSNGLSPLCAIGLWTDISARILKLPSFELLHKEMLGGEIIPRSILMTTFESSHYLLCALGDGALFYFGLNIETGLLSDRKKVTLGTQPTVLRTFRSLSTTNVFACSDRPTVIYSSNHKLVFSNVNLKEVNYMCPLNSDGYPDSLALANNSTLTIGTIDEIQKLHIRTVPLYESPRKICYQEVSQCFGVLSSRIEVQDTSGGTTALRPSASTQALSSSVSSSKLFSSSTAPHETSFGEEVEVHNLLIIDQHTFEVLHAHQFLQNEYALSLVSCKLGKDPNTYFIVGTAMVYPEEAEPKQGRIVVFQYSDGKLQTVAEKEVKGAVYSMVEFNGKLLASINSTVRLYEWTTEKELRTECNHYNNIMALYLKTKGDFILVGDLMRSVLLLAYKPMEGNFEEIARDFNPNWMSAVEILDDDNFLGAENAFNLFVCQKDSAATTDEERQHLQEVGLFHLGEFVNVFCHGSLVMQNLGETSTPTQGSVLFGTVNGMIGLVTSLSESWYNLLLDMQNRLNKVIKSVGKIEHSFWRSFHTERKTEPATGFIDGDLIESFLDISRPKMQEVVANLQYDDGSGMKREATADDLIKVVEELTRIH
Method: PBMC were treated with 1 nM, 10 nM, 100 nM, or 1000 nM of Compound D or Compound E for 20 hours.

GSPT1 [3] = target: T1, GSPT1; test: GSPT1 protein reduction, western analysis, HL-60; format: cell-based; parameters: reduction in GSPT1 protein level was evaluated in human normal PBMCs; endogenous in cells; host or cells: primary PBMCs from normal donors (ID 4328, 4379) and AML patients (ID 11SH, 09P6)
Method: FIG. 30C [HL-60]) and 48-hour (FIG. 30B [KG-1]; FIG. 30D [HL-60]) time points. […] The time course of the reduction in GSPT1 by Compound D also was studied for up to 48 hours. The progressive degradation of GSPT1 over the course of 1 to 20 hours was evident in the presence of all concentrations of Compound D studied from 3 to 300 nM in HNT-34, HL-60, and ML-2 cells, with little GSPT1 remaining by 20 hours at 100 or 300 nM Compound D in HNT-34 or HL-60 cells (FIG. 34 and FIG. 35C). Time-dependent reduction in GSPT1 was also observed in KG-1 and OCI-AML2 cells at 3 to 1000 nM Compound D, with little GSPT1 remaining in KG-1 cells at 100 to 300 nM at 24 hours or in OCI-AML2 cells at 300 and 1000 nM at 24 hours (FIG. 35D). Loss of GSPT1 occurred more slowly in Kasumi-1, AML-193, and […] cells. […] A positive association (r^2=0.50; […]

GSPT1 [4] = target: T1, GSPT1; test: GSPT1 protein reduction, western analysis, OCI-AML3; format: cell-based; parameters: reduction in GSPT1 protein level was evaluated in human normal PBMCs; endogenous in cells; host or cells: primary PBMCs from normal donors (ID 4328, 4379) and AML patients (ID 11SH, 09P6)
Method: The reduction in the level of GSPT1 protein was concentration-dependent over the range of 3 to 1000 nM in eight of the nine AML cell lines and over the range of 300 to 1000 nM in one relatively insensitive AML cell line. The time course of the reduction in GSPT1 by Compound D also was studied for up to 48 hours. The progressive degradation of GSPT1 over the course of 1 to 20 hours was evident in the presence of all concentrations of Compound D studied from 3 to 300 nM in HNT-34, HL-60, and ML-2 cells, with little GSPT1 remaining by 20 hours at 100 or 300 nM Compound D in HNT-34 or HL-60 cells (FIG. 34 and FIG. 35C). Time-dependent reduction in GSPT1 was also observed in KG-1 and OCI-AML2 cells at 3 to 1000 nM Compound D, with little GSPT1 remaining in KG-1 cells at 100 to 300 nM at 24 hours or in OCI-AML2 cells at 300 and 1000 nM at 24 hours (FIG. 35D). Loss of GSPT1 occurred more slowly in Kasumi-1, AML-193, and F36-P cells.
Compound D-mediated GSPT1 reduction at 8 hours was compared to induction of caspase 3/7 activation (apoptosis) at 12, 24, and 48 hour time points in these nine AML cell lines. […] A positive association (r^2=0.50; R=0.71; p value=4.86E-002) was observed between the level of GSPT1 reduction and apoptosis induction in the AML cell panel (FIG. 36), with >90% GSPT1 reduction correlating with induction of apoptosis.

`O=C1CCC(N2Cc3cc(CNC(=O)C(F)(F)c4ccc(Cl)cc4)ccc3C2=O)C(=O)N1` (stereo not drawn) [Compound D, 2-(4-chlorophenyl)-N-((2-(2,6-dioxopiperidin-3-yl)-1-oxoisoindolin-5-yl)methyl)-2,2-difluoroacetamide] was tested, and the “average percent increase in apoptosis” value (HL-60 cells; HL-60, 41 nM, 24 hour time-point) was 9%, the “Average Percent Increase in Apoptosis at 123 nM Compound D, Apoptosis (12 hr)” value (HL-60 cells; HL-60, 123 nM, 12 hr) was 1% and the “Average Percent Increase in Apoptosis at 123 nM Compound D, Apoptosis (24 hr)” value (HL-60 cells; HL-60, 123 nM, 24 hr) was 19%. The “Average Percent Increase in Apoptosis at 123 nM Compound D, Apoptosis (48 hr)” value (HL-60 cells; HL-60, 123 nM, 48 hr) was 62%, the EC50 (HL-60 cells; HL-60, 24 hr) was 73 nM and the EC50 (HL-60 cells; HL-60, 48 hr) was 15 nM. For the same compound, the EC50 (HL-60 cells; HL-60, 72 hr) was 8 nM, the “induction of ATF3 mRNA level” value (ATF3) was “approximately 100 fold” and the “induction of proteins in the UPR pathway or cleavage of PARP” value [1] was “did not occur”. The “Reduction in GSPT1 Protein Level” value (GSPT1 [2]; PBMC sample 4328 (normal), 100 nM Compound D, 8 hours) was 67%, the “Reduction in GSPT1 Protein Level” value (GSPT1 [2]; PBMC sample 4328 (normal), 100 nM Compound D, 22 hours) was 92% and the “Reduction in GSPT1 Protein Level” value (GSPT1 [2]; PBMC sample 4328 (normal), 300 nM Compound D, 8 hours) was 80%. The “Reduction in GSPT1 Protein Level” value (GSPT1 [2]; PBMC sample 4328 (normal), 300 nM Compound D, 22 hours) was 98%, the “Reduction in GSPT1 Protein Level” value (GSPT1 [2]; PBMC sample 4379 (normal), 100 nM Compound D, 8 hours) was 39% and the “Reduction in GSPT1 Protein Level” value (GSPT1 [2]; PBMC sample 4379 (normal), 100 nM Compound D, 22 hours) was 73%. The “Reduction in GSPT1 Protein Level” value (GSPT1 [2]; PBMC sample 4379 (normal), 300 nM Compound D, 8 hours) was 58%, the “Reduction in GSPT1 Protein Level” value (GSPT1 [2]; PBMC sample 4379 (normal), 300 nM Compound D, 22 hours) was 83% and the “time at which GSPT1 degradation was evident” value (GSPT1 [2]; healthy PBMCs, 10 nM Compound D) was 4 h. For the same compound, the “reduction of GSPT1 protein levels” value (GSPT1 [3]; HL-60, 100 nM Compound D, 4 hours) was “greater than 800”, the “reduction of GSPT1” value (GSPT1 [3]; HL-60, >30 nM Compound D, 8 hours) was “complete reduction” and the “Percent Reduction at 100 nM Compound D GSPTI (8 hr)” value (GSPT1 [4]; OCI-AML3, 100 nM, 8 hr, visual interpolation between 3 and 300 nM) was ~30^b %. For the same compound, the GSPT1 reduction (GSPT1 [4]; OCI-AML3, 300 nM Compound D, 8 hours) was 37%, the GSPT1 protein level (GSPT1 [4]; OCI-AML3, 4-hour exposure) was “barely changed” and the “loss of GSPT1” value (GSPT1 [4]; OCI-AML3, 300 and 1000 nM, 24 and 48 hours) was “slight loss”.
